From ChEMBL document CHEMBL1142608, “A ceramide and cerebroside from the starfish asterias amurensis Lütken and their plant-growth promotion activities” (J Nat Prod, 2006)
Activity calls are given as the source filed them. No cut-off for these calls is given here.

These compounds were tested on Brassica rapa subsp. oleifera (assay: Growth-promoting activity in Brassica campestris assessed as root growth at 25 degC after 1 week by filter paper assay under 12 hrs/12 hrs light-dark cycle condition).
Assay type: functional, organism-based

`CCCCCCCC/C=C\CCCCCCCC[C@@H](O)[C@@H](O)[C@H](CO)NC(=O)[C@H](O)CCCCCCCCCCCCCC` was tested. Which Activity did it give?
Its Activity is “Active”.

The compounds below were run on Brassica rapa subsp. oleifera (assay: Growth-promoting activity in Brassica campestris assessed as whole body growth at 25 degC after 1 week by filter paper assay under 12 hrs/12 hrs light-dark cycle condition).
Assay type: functional, organism-based

`CCCCCCCC/C=C\CCCCCCC/C=C/[C@@H](O)[C@H](CO[C@@H]1O[C@H](CO)[C@@H](O)[C@H](O)[C@H]1O)NC(=O)[C@H](O)CCCCCCCCCCCC` was tested. Which Activity did it give?
Its Activity is “Active”.

For `CC(C)CC(=O)C[C@@](C)(O)[C@H]1CC[C@H]2[C@@H]3C[C@H](O[C@@H]4O[C@H](C)[C@@H](O)[C@H](O[C@@H]5OC[C@@H](O[C@@H]6O[C@H](CO)[C@H](O)[C@H](O)[C@H]6O[C@@H]6O[C@H](C)[C@@H](O)[C@H](O)[C@H]6O)[C@H](O)[C@H]5O[C@H]5O[C@@H](C)[C@H](O)[C@@H](O)[C@@H]5O)[C@H]4O)[C@H]4C[C@@H](OS(=O)(=O)O)CC[C@]4(C)C3=CC[C@@]21C`, which Activity is on record?
The Activity was “inactive”.

For `CCCCCCCC/C=C\CCCCCC/C=C/[C@@H](O)[C@H](CO[C@@H]1O[C@H](CO)[C@@H](O)[C@H](O)[C@H]1O)NC(=O)[C@H](O)CCCCCCCCCCCCCC`, which Activity is on record?
The Activity was “Active”.

How did the Activity turn out when `CCCCCCCC/C=C\CCCCCCC/C=C/[C@@H](O)[C@H](CO[C@@H]1O[C@H](CO)[C@@H](O)[C@H](O)[C@H]1O)NC(=O)[C@H](O)CCCCCCCCCCCCC` was run?
The Activity was “Active”.

`CC(C)CC(=O)C[C@@](C)(O)[C@H]1CC[C@H]2[C@@H]3C[C@H](O[C@@H]4O[C@H](C)C(=O)[C@H](O[C@@H]5O[C@H](C)[C@@H](O[C@@H]6O[C@H](C)[C@H](O)[C@H](O)[C@H]6O[C@@H]6O[C@H](C)[C@H](O)[C@H](O)[C@H]6O)[C@H](O)[C@H]5O[C@@H]5O[C@H](C)[C@@H](O)[C@H](O)[C@H]5O)[C@H]4O)[C@H]4C[C@@H](OS(=O)(=O)O)CC[C@]4(C)C3=CC[C@@]21C` was tested. Which Activity did it give?
The Activity was “inactive”.
